pIC50: −log10 of the molar value.

For 30 molecules, IC50 results are on record in US20260226068A1, “IMIDAZOTRIAZINE IL-17A MODULATORS AND USES THEREOF” (DICE ALPHA, INC., priority 2023, published 2026).

The target in one assay is T1, IL-17A/F (Homo sapiens, UniProt Q16552+Q96PD4).
T1 construct: purchased R&D Systems
T1 sequence (Q16552 24-155): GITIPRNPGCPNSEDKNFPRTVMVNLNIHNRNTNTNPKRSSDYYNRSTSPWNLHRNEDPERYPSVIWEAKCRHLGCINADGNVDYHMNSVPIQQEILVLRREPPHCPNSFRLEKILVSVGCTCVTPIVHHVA
T1 sequence (Q96PD4 31-163): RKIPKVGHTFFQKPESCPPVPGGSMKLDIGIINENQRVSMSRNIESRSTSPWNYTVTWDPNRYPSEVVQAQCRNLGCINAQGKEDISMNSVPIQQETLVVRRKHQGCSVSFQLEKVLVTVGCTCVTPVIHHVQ
As to the kind of experiment: IL-17A/F HEK-Blue cell assay (SEAP reporter). The assay is classed as cell-based. The conditions noted are these: HEK-Blue IL-17A reporter cells, IL17A/F 5 ng/mL, 20 hours, SEAP read at A630; read-out: HEK-Blue IL17AF (IC50 for IL-17A/F inhibition). The method, then: (§1) The HEK-Blue IL-17A reporter cell line (Fisher #NC 1408637) was used for cell-based IL-17A/A inhibition assays. Cells were grown and prepared for assays according to the manufacturer's instructions. This cell line consists of HEK 293 cells that were designed to expressed IL-17RA, IL-17RC, and the Act1 adapter molecule, the combination of which, when stimulated by IL-17A/A or IL17A/F activates a […] promoter and drives expression of the recombinant Secreted Alkaline Phosphatase (SEAP) gene. Media from the cells is then added to a development reagent (Quanti-Blue Substrate, Fisher #NC971 1613), and read at A630.
(§2) Compounds were dispensed in DMSO to an empty clear 384-well tissue culture plate in a titration ranging from 10 μM to 27 pM, with DMSO added to every well to a final concentration of […]. Cells were then added to the plate (45 μL/well at a concentration of 280,000 cells/mL). IL17A/A (Genscript #Z03228) or IL17A/F (R&D Systems) was added to the plate to a final concentration of 5 ng/mL and a final well volume of 50 μL. The cells, compound, and IL-17A/A or IL17A/F were then incubated for 20 hours before media was removed for SEAP analysis. The resulting inhibition curve was then analyzed using Dotmatics' integrated 4-parameter fit screening protocol to generate IC50 values.
(§3) Table 2 includes IC50 values for IL-17A/A and IL-17A/F inhibition of selected compounds; with compounds having a IC50 of A<100 nM; B 100-1000 nM; and C>1000 nM.

The next assay concerns the target T2, IL-17A/A (Homo sapiens, UniProt Q16552).
T2 construct: purchased Genscript Z03228
T2 sequence (Q16552 24-155): T1 sequence (Q16552 24-155)
As to the kind of experiment: IL-17A/A HEK-Blue cell assay (SEAP reporter). It is filed as cell-based. The conditions noted are these: HEK-Blue IL-17A reporter cells, IL17A/A 5 ng/mL, 20 hours, SEAP read at A630; read-out: HEK-Blue IL17AA (IC50 for IL-17A/A inhibition). As for the experimental part: as §1, §2, §3

`CCn1nccc1C(=O)N[C@H](c1cn2nc(C[C@H]3C[C@@H](C(F)(F)F)CNC3=O)c(C3CCOC3)nc2n1)C1CCC(F)(F)CC1` (single isomer, unassigned) [Compound 62]: the pIC50 at IL-17A/F was 6.00 to 7.00; on IL-17A/A, above 7.00.
In the same order, the values of `CCn1nccc1C(=O)N[C@H](c1cn2nc(C[C@@H]3CC(F)(F)CNC3=O)cnc2n1)C1CCC(F)(F)CC1` (single isomer, unassigned) [Compound 63] are below 6.00 and 6.00 to 7.00.
With `CCn1nccc1C(=O)N[C@H](c1cn2nc(CC3CC(F)(F)CNC3=O)c(N3CCOCC3)nc2n1)C1CCC(F)(F)CC1` (single isomer, unassigned) [Compound 64], the pIC50 on IL-17A/F was below 6.00; at IL-17A/A, above 7.00.
In the same order, the values of `CCn1nccc1C(=O)N[C@H](c1cn2nc(CC3CC(F)(F)CNC3=O)c(N3CCOCC3)nc2n1)C1CCC(F)(F)CC1` (single isomer, unassigned) [Compound 65] are below 6.00 and above 7.00.
Taken in the same sequence, the figures for `CCn1nccc1C(=O)N[C@H](c1cn2nc(C[C@H]3C[C@@H](C(F)(F)F)CNC3=O)c(C3CCCOC3)nc2n1)[C@H]1CCCC(F)(F)C1` (single isomer, unassigned) [Compound 68] were above 7.00 and above 7.00.
Taken in the same sequence, the figures for `CCn1nccc1C(=O)N[C@H](c1cn2nc(C[C@H]3C[C@@H](C(F)(F)F)CNC3=O)c(C3CCCOC3)nc2n1)[C@@H]1CCCC(F)(F)C1` (single isomer, unassigned) [Compound 71] were 6.00 to 7.00 and above 7.00.
In the case of `CCn1nccc1C(=O)N[C@H](c1cn2nc(C[C@H]3C[C@@H](C(F)(F)F)CNC3=O)c(C3CCOC3)nc2n1)[C@@H]1CCCC(F)(F)C1` (single isomer, unassigned) [Compound 72], the pIC50 at IL-17A/F is 6.00 to 7.00; on IL-17A/A, above 7.00.
As to `CCn1nccc1C(=O)N[C@H](c1cn2nc(C[C@H]3C[C@@H](C(F)(F)F)CNC3=O)c(C3CCOC3)nc2n1)[C@@H]1CCCC(F)(F)C1` (single isomer, unassigned) [Compound 73], the pIC50 at IL-17A/F was 6.00 to 7.00; on IL-17A/A, above 7.00.
Take `O=C(N[C@H](c1cn2nc(C[C@H]3C[C@@H](C(F)(F)F)CNC3=O)cnc2n1)C1CCC(F)(F)CC1)c1nonc1[C@H]1CC1(F)F` (single isomer, unassigned) [Compound 76]: the pIC50 is below 6.00 at IL-17A/F and 6.00 to 7.00 at IL-17A/A.
Take `O=C(N[C@H](c1cn2nc(C[C@H]3C[C@@H](C(F)(F)F)CNC3=O)cnc2n1)C1CCC(F)(F)CC1)c1nonc1[C@@H]1CC1(F)F` (single isomer, unassigned) [Compound 77]: the results for the pIC50 on IL-17A/F and on IL-17A/A were below 6.00 and above 7.00, respectively.
Take `CC(C)n1nccc1C(=O)N[C@H](c1cn2nc(CC3C[C@@H](C(F)(F)F)CNC3=O)c(N3CCOCC3)nc2n1)C1CCC(F)(F)CC1` (single isomer, unassigned) [Compound 79]: the pIC50 on IL-17A/F is 6.00 to 7.00; on IL-17A/A, above 7.00.
Taken in the same sequence, the figures for `CC(C)n1nccc1C(=O)N[C@H](c1cn2nc(CC3C[C@@H](C(F)(F)F)CNC3=O)c(N3CCOCC3)nc2n1)C1CCC(F)(F)CC1` (single isomer, unassigned) [Compound 80] were below 6.00 and above 7.00.
In the same order, the values of `CCn1nccc1C(=O)N[C@H](c1cn2nc(CC3C[C@@H](C(F)(F)F)CNC3=O)c(N3CC4CC(C3)O4)nc2n1)C1CCC(F)(F)CC1` (single isomer, unassigned) [Compound 81] are 6.00 to 7.00 and above 7.00.
As for `CCn1nccc1C(=O)N[C@H](c1cn2nc(CC3C[C@@H](C(F)(F)F)CNC3=O)c(N3CC4CC(C3)O4)nc2n1)C1CCC(F)(F)CC1` (single isomer, unassigned) [Compound 82], the pIC50 at IL-17A/F is below 6.00; at IL-17A/A it was above 7.00.
Taken in the same sequence, the figures for `CCn1nccc1C(=O)N[C@H](c1cn2nc(CC3C[C@@H](C(F)(F)F)CNC3=O)c(N3C[C@H]4CC[C@@H](C3)O4)nc2n1)C1CCC(F)(F)CC1` (single isomer, unassigned) [Compound 83] were 6.00 to 7.00 and above 7.00.
Take `CCn1nccc1C(=O)N[C@H](c1cn2nc(CC3C[C@@H](C(F)(F)F)CNC3=O)c(N3C[C@H]4CC[C@@H](C3)O4)nc2n1)C1CCC(F)(F)CC1` (single isomer, unassigned) [Compound 84]: the results for the pIC50 on IL-17A/F and on IL-17A/A were 6.00 to 7.00 and above 7.00, respectively.
On to `CCn1nccc1C(=O)N[C@H](c1cn2nc(CC3C[C@@H](C(F)(F)F)CNC3=O)c(N3C[C@H]4C[C@@H]3CO4)nc2n1)C1CCC(F)(F)CC1` (single isomer, unassigned) [Compound 85], for which the pIC50 at IL-17A/F was below 6.00; at IL-17A/A, 6.00 to 7.00.
Taken in the same sequence, the figures for `CCn1nccc1C(=O)N[C@H](c1cn2nc(CC3C[C@@H](C(F)(F)F)CNC3=O)c(N3C[C@H]4C[C@@H]3CO4)nc2n1)C1CCC(F)(F)CC1` (single isomer, unassigned) [Compound 86] were 6.00 to 7.00 and above 7.00.
Take `CCn1nccc1C(=O)N[C@H](c1cn2nc(CC3C[C@@H](C(F)(F)F)CNC3=O)c(N3CCOCC3)nc2n1)[C@H]1CCCC(F)(F)C1` (single isomer, unassigned) [Compound 90]: the pIC50 was 6.00 to 7.00 at IL-17A/F and above 7.00 on IL-17A/A.
`CCn1nccc1C(=O)N[C@H](c1cn2nc(CC3C[C@@H](C(F)(F)F)CNC3=O)c(N3CCOCC3)nc2n1)[C@H]1CCCC(F)(F)C1` (single isomer, unassigned) [Compound 91]: the pIC50 at IL-17A/F is 6.00 to 7.00; at IL-17A/A it was above 7.00.
For the molecule `CCn1nccc1C(=O)N[C@H](c1cn2nc(CC3C[C@@H](C(F)(F)F)CNC3=O)c(N3CC4CC(C3)O4)nc2n1)[C@H]1CCCC(F)(F)C1` (single isomer, unassigned) [Compound 92], the pIC50 was 6.00 to 7.00 at IL-17A/F and above 7.00 at IL-17A/A.
On to `CCn1nccc1C(=O)N[C@H](c1cn2nc(CC3C[C@@H](C(F)(F)F)CNC3=O)c(N3CC4CC(C3)O4)nc2n1)[C@H]1CCCC(F)(F)C1` (single isomer, unassigned) [Compound 93], for which the pIC50 was 6.00 to 7.00 on IL-17A/F and above 7.00 on IL-17A/A.
As to `CCn1nccc1C(=O)N[C@H](c1cn2nc(CC3C[C@@H](C(F)(F)F)CNC3=O)c(N3CCOCC3)nc2n1)[C@@H]1CCCC(F)(F)C1` (single isomer, unassigned) [Compound 94], the pIC50 on IL-17A/F was 6.00 to 7.00; at IL-17A/A, above 7.00.
Taken in the same sequence, the figures for `CCn1nccc1C(=O)N[C@H](c1cn2nc(CC3C[C@@H](C(F)(F)F)CNC3=O)c(N3CCOCC3)nc2n1)[C@@H]1CCCC(F)(F)C1` (single isomer, unassigned) [Compound 95] were 6.00 to 7.00 and above 7.00.
Turning to `CCn1nccc1C(=O)N[C@H](c1cn2nc(CC3C[C@@H](C(F)(F)F)CNC3=O)c(N3CC4CC(C3)O4)nc2n1)[C@@H]1CCCC(F)(F)C1` (single isomer, unassigned) [Compound 96], the pIC50 on IL-17A/F was 6.00 to 7.00; at IL-17A/A, above 7.00.
Taken in the same sequence, the figures for `CCn1nccc1C(=O)N[C@H](c1cn2nc(CC3C[C@@H](C(F)(F)F)CNC3=O)c(N3CC4CC(C3)O4)nc2n1)[C@@H]1CCCC(F)(F)C1` (single isomer, unassigned) [Compound 97] were below 6.00 and above 7.00.
As to `CCn1nccc1C(=O)N[C@H](c1cn2nc(CC3C[C@@H](C(F)(F)F)CNC3=O)c(N3C[C@@H]4C[C@H]3CO4)nc2n1)C1CCC(F)(F)CC1` (single isomer, unassigned) [Compound 98], the pIC50 on IL-17A/F and on IL-17A/A was above 7.00 each time.
Turning to `CCn1nccc1C(=O)N[C@H](c1cn2nc(CC3C[C@@H](C(F)(F)F)CNC3=O)c(N3C[C@@H]4C[C@H]3CO4)nc2n1)C1CCC(F)(F)CC1` (single isomer, unassigned) [Compound 99], the pIC50 is below 6.00 at IL-17A/F and above 7.00 on IL-17A/A.
As for `CC(C)n1nccc1C(=O)N[C@H](c1cn2nc(CC3C[C@@H](C(F)(F)F)CNC3=O)c(N3CCOCC3)nc2n1)[C@H]1CC[C@H](C)CC1` (single isomer, unassigned) [Compound 100], the pIC50 at IL-17A/F and at IL-17A/A was above 7.00 in each case.
`CC(C)n1nccc1C(=O)N[C@H](c1cn2nc(CC3C[C@@H](C(F)(F)F)CNC3=O)c(N3CCOCC3)nc2n1)[C@H]1CC[C@H](C)CC1` (single isomer, unassigned) [Compound 101]: the values for the pIC50 at IL-17A/F and at IL-17A/A were 6.00 to 7.00 and above 7.00, respectively.
